Experimental data: ChEMBL document CHEMBL1201862, “PubChem BioAssay data set” (2004)
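How tested: cells in 96-well plates exposed to compound for 48 hours at five concentrations. GI50: concentration for 50% inhibition of growth.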 The source made the active and inactive calls. No stated cut-off is given here; in the data, active = GI50 up to about 1.1 µM and inactive = higher.

What was measured:
Experiment in all cases: DTP human tumour cell line panel, 48 h
MDA-MB-435 = system: MDA-MB-435
SF-268 = system: SF-268
SN12C = system: SN12C
NCI-H226 = system: NCI-H226
SF-295 = system: SF-295
Malme-3M = system: Malme-3M
ACHN = system: ACHN
SNB-75 = system: SNB-75
SNB-19 = system: SNB-19
KM12 = system: KM12
T47D = system: T47D
UACC-62 = system: UACC-62
UACC-257 = system: UACC-257
NCI-H460 = system: NCI-H460
OVCAR-3 = system: OVCAR-3
SF-539 = system: SF-539
SK-MEL-5 = system: SK-MEL-5
HL-60 = system: HL-60
HOP-92 = system: HOP-92

SMILES	GI50 (MDA-MB-435)	GI50 (SF-268)	GI50 (SN12C)	GI50 (NCI-H226)	GI50 (SF-295)	GI50 (Malme-3M)	GI50 (ACHN)	GI50 (SNB-75)	GI50 (SNB-19)	GI50 (KM12)	GI50 (T47D)	GI50 (UACC-62)	GI50 (UACC-257)	GI50 (NCI-H460)	GI50 (OVCAR-3)	GI50 (SF-539)	GI50 (SK-MEL-5)	GI50 (HL-60)	GI50 (HOP-92)
Cc1ccccc1N/C(=C(/C(Cl)=C(Cl)Cl)[N+](=O)[O-])n1nnc2ccccc21	16.5 µM (inactive)	15.7 µM (inactive)	17 µM (inactive)	17.6 µM (inactive)	14.9 µM (inactive)	14.7 µM (inactive)	29.2 µM (inactive)	16.6 µM (inactive)	19.6 µM (inactive)	15.9 µM (inactive)	21 µM (inactive)	22.7 µM (inactive)	28.9 µM (inactive)	14.2 µM (inactive)	16.9 µM (inactive)	17.6 µM (inactive)	–	–	–
CC1CN(C)c2ccccc2N=C1NN (configuration not stated)	> 100 µM (inactive)	> 100 µM (inactive)	> 100 µM (inactive)	> 100 µM (inactive)	> 100 µM (inactive)	> 100 µM (inactive)	> 100 µM (inactive)	–	> 100 µM (inactive)	> 100 µM (inactive)	–	> 100 µM (inactive)	> 100 µM (inactive)	> 100 µM (inactive)	> 100 µM (inactive)	–	> 100 µM (inactive)	> 100 µM (inactive)	–
COc1ccc(OC)c(C2CCCc3c2cnc2nc(N)nc(N)c32)c1 (configuration not stated)	< 0.01 µM (active)	–	< 0.01 µM (active)	> 100 µM (inactive)	< 0.0143 µM (active)	< 0.0238 µM (active)	< 0.01 µM (active)	0.247 µM (active)	0.0703 µM (active)	0.0716 µM (active)	–	< 0.01 µM (active)	< 0.01 µM (active)	< 0.01 µM (active)	–	< 0.0119 µM (active)	< 0.01 µM (active)	< 0.01 µM (active)	0.863 µM (active)
COC(=O)Nc1nc(=O)c2ccccc2[nH]1	–	> 100 µM (inactive)	> 100 µM (inactive)	> 100 µM (inactive)	30.6 µM (inactive)	53.3 µM (inactive)	> 100 µM (inactive)	28 µM (inactive)	> 100 µM (inactive)	90.4 µM (inactive)	> 100 µM (inactive)	> 100 µM (inactive)	> 100 µM (inactive)	> 100 µM (inactive)	> 100 µM (inactive)	> 100 µM (inactive)	55 µM (inactive)	> 100 µM (inactive)	–
COc1cc2c(cc1OC)C(N)CC2=O (configuration not stated)	> 100 µM (inactive)	> 100 µM (inactive)	> 100 µM (inactive)	9.06 µM (inactive)	> 100 µM (inactive)	–	> 100 µM (inactive)	> 100 µM (inactive)	> 100 µM (inactive)	> 100 µM (inactive)	> 100 µM (inactive)	> 100 µM (inactive)	> 100 µM (inactive)	–	> 100 µM (inactive)	> 100 µM (inactive)	> 100 µM (inactive)	–	> 100 µM (inactive)
COc1ccc(C2c3cc4c(c(OC)c3CC3OCC(=O)C32)OCO4)cc1OC (configuration not stated)	0.0146 µM (active)	0.416 µM (active)	< 0.01 µM (active)	0.0385 µM (active)	0.0307 µM (active)	–	< 0.01 µM (active)	–	0.0538 µM (active)	0.0318 µM (active)	–	0.0531 µM (active)	–	0.0625 µM (active)	–	0.0246 µM (active)	0.037 µM (active)	< 0.01 µM (active)	25 µM (inactive)
Cn1c(=O)sc2cc(C(=S)N3CCC(Cc4ccccc4)CC3)ccc21	27.5 µM (inactive)	28.7 µM (inactive)	> 100 µM (inactive)	15.3 µM (inactive)	27.3 µM (inactive)	–	> 100 µM (inactive)	–	> 100 µM (inactive)	34.7 µM (inactive)	–	61.5 µM (inactive)	38.3 µM (inactive)	27.8 µM (inactive)	53.8 µM (inactive)	> 100 µM (inactive)	26.9 µM (inactive)	22.5 µM (inactive)	–
CC1=NOC2(C1)/C(=N/O)CCC/C2=N\O (configuration not stated)	> 100 µM (inactive)	> 100 µM (inactive)	> 100 µM (inactive)	> 100 µM (inactive)	> 100 µM (inactive)	> 100 µM (inactive)	> 100 µM (inactive)	> 100 µM (inactive)	> 100 µM (inactive)	> 100 µM (inactive)	> 100 µM (inactive)	> 100 µM (inactive)	> 100 µM (inactive)	> 100 µM (inactive)	> 100 µM (inactive)	> 100 µM (inactive)	> 100 µM (inactive)	–	–
O=C(Cc1ccc(O)c(O)c1)NCc1c[nH]c2ccccc12	–	37.8 µM (inactive)	–	–	93.3 µM (inactive)	23.1 µM (inactive)	–	> 100 µM (inactive)	94 µM (inactive)	71.4 µM (inactive)	> 100 µM (inactive)	–	70.5 µM (inactive)	40.6 µM (inactive)	42.3 µM (inactive)	43.8 µM (inactive)	43.3 µM (inactive)	27 µM (inactive)	> 100 µM (inactive)
COC(=O)c1c(O)ccc(O)c1C(C(C)=O)C(C)=O	–	> 100 µM (inactive)	> 100 µM (inactive)	–	> 100 µM (inactive)	> 100 µM (inactive)	–	> 100 µM (inactive)	> 100 µM (inactive)	> 100 µM (inactive)	–	96.6 µM (inactive)	> 100 µM (inactive)	> 100 µM (inactive)	> 100 µM (inactive)	> 100 µM (inactive)	> 100 µM (inactive)	> 100 µM (inactive)	> 100 µM (inactive)
CSc1[nH]nc(N)c1C(=O)Nc1ccccc1	> 100 µM (inactive)	> 100 µM (inactive)	> 100 µM (inactive)	> 100 µM (inactive)	–	> 100 µM (inactive)	–	> 100 µM (inactive)	> 100 µM (inactive)	> 100 µM (inactive)	> 100 µM (inactive)	> 100 µM (inactive)	> 100 µM (inactive)	> 100 µM (inactive)	> 100 µM (inactive)	> 100 µM (inactive)	> 100 µM (inactive)	> 100 µM (inactive)	–
COC(=O)/C=C(\S/C(=C(/c1ccccc1)n1cc(C(=O)OC)c(C(=O)OC)n1)c1ccccc1)C(=O)OC	15.8 µM (inactive)	16.1 µM (inactive)	16.5 µM (inactive)	89.1 µM (inactive)	53.8 µM (inactive)	14.8 µM (inactive)	3.29 µM (inactive)	29.1 µM (inactive)	19.5 µM (inactive)	54.6 µM (inactive)	3.27 µM (inactive)	30.5 µM (inactive)	7.33 µM (inactive)	30.8 µM (inactive)	3.27 µM (inactive)	15.8 µM (inactive)	19.3 µM (inactive)	3.26 µM (inactive)	–
Cc1cc(S(=O)(=O)N2CCNNC2=O)c(S)cc1Cl	> 100 µM (inactive)	> 100 µM (inactive)	> 100 µM (inactive)	> 100 µM (inactive)	> 100 µM (inactive)	17.7 µM (inactive)	> 100 µM (inactive)	> 100 µM (inactive)	> 100 µM (inactive)	> 100 µM (inactive)	–	> 100 µM (inactive)	> 100 µM (inactive)	> 100 µM (inactive)	> 100 µM (inactive)	37 µM (inactive)	> 100 µM (inactive)	39.7 µM (inactive)	48.4 µM (inactive)
CN(C)CCCN1c2ccccc2CCc2ccc([N+](=O)[O-])cc21	17.9 µM (inactive)	29.6 µM (inactive)	22.8 µM (inactive)	26.2 µM (inactive)	17.9 µM (inactive)	19.5 µM (inactive)	34.6 µM (inactive)	–	45.1 µM (inactive)	18.1 µM (inactive)	16.5 µM (inactive)	16.1 µM (inactive)	16.3 µM (inactive)	19.5 µM (inactive)	34.5 µM (inactive)	–	15.8 µM (inactive)	19.8 µM (inactive)	–
O=S1(=O)OCCOS(=O)(=O)C1(F)Br	> 100 µM (inactive)	> 100 µM (inactive)	> 100 µM (inactive)	> 100 µM (inactive)	> 100 µM (inactive)	> 100 µM (inactive)	> 100 µM (inactive)	> 100 µM (inactive)	> 100 µM (inactive)	> 100 µM (inactive)	> 100 µM (inactive)	> 100 µM (inactive)	> 100 µM (inactive)	–	> 100 µM (inactive)	> 100 µM (inactive)	> 100 µM (inactive)	> 100 µM (inactive)	–
CNc1nnc(CCCCCCCCc2nnc(NC)o2)o1	63.8 µM (inactive)	–	> 100 µM (inactive)	> 100 µM (inactive)	75.2 µM (inactive)	–	> 100 µM (inactive)	> 100 µM (inactive)	> 100 µM (inactive)	> 100 µM (inactive)	–	–	51.8 µM (inactive)	42 µM (inactive)	25.9 µM (inactive)	> 100 µM (inactive)	> 100 µM (inactive)	32.4 µM (inactive)	> 100 µM (inactive)
c1ccc(C/C(=N\Nc2nc3ccccc3o2)c2ccccn2)cc1	0.638 µM (active)	0.0805 µM (active)	0.0569 µM (active)	< 0.0483 µM (active)	0.234 µM (active)	0.0233 µM (active)	0.0202 µM (active)	–	0.2 µM (active)	0.264 µM (active)	–	0.387 µM (active)	0.0775 µM (active)	0.0931 µM (active)	0.0137 µM (active)	0.114 µM (active)	0.0769 µM (active)	0.0698 µM (active)	0.0281 µM (active)
